Test results: patent US6737383B1, “Herbicidal oxadiazolidines” (priority 1999, dated 2004)

Tests used:
[1] = tested on: sugar beet; assay: Test B pre/postemergence sugar beet; assay type: in vivo, Beta vulgaris
In short: (§1)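 Test chemicals in a non-phytotoxic solvent mixture with surfactant were sprayed preemergence onto planted seeds and postemergence onto plants 2 to 18 cm tall (1- to 4-leaf stage). After twelve to sixteen days in a greenhouse, injury was visually rated against untreated controls from 0 (no effect) to 10 (complete control).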

[2] = tested on: wheat; assay: Test B pre/postemergence wheat; assay type: in vivo, Triticum aestivum
In short: as §1

[3] = tested on: pigweed; assay: Test B pre/postemergence pigweed; assay type: in vivo, Amaranthus retroflexus
In short: as §1

[4] = tested on: surinam grass; assay: Test B pre/postemergence surinam grass; assay type: in vivo, Brachiaria decumbens
In short: as §1

[5] = tested on: soybean; assay: Test B pre/postemergence soybean; assay type: in vivo, Glycine max
In short: as §1

[6] = tested on: cocklebur; assay: Test B pre/postemergence cocklebur; assay type: in vivo, Xanthium strumarium
In short: as §1

[7] = tested on: wild oat; assay: Test B pre/postemergence wild oat; assay type: in vivo, Avena fatua
In short: as §1

[8] = tested on: bedstraw; assay: Test B pre/postemergence bedstraw; assay type: in vivo, Galium aparine; settings: Postemergence
In short: as §1

[9] = tested on: morningglory; assay: Test B pre/postemergence morningglory; assay type: in vivo, Ipomoea hederacea
In short: as §1

[10] = tested on: duck salad; assay: Test B flood test duck salad; assay type: in vivo, Heteranthera limosa
In short: (§2)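 Plants were grown to the 2-leaf stage before treatment with test chemical, then held in a greenhouse for twelve to sixteen days. Injury was visually rated against untreated controls on a 0–10 scale, where 0 is no effect and 10 is complete control.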

[11] = tested on: purple nutsedge; assay: Test B pre/postemergence purple nutsedge; assay type: in vivo, Cyperus rotundus
In short: as §1

[12] = tested on: smallflower flatsedge; assay: Test B flood test smallflower flatsedge; assay type: in vivo, Cyperus difformis
In short: as §2

[13] = tested on: bamyardgrass; assay: Test B flood test barnyardgrass; assay type: in vivo, Echinochloa crus-galli
In short: as §2

[14] = tested on: giant foxtail; assay: Test B pre/postemergence giant foxtail; assay type: in vivo, Setaria faberii
In short: as §1

[15] = tested on: rape; assay: Test B pre/postemergence rape; assay type: in vivo, Brassica napus
In short: as §1

[16] = tested on: blackgrass; assay: Test B pre/postemergence blackgrass; assay type: in vivo, Alopecurus myosuroides
In short: as §1

[17] = Postemergence, Rate 62 g/ha, scale 0 to 10, 0 is no effect, 10 is complete control
[18] = Postemergence, Rate 125 g/ha, scale of 0 to 10 where 0 is no effect and 10 is complete control
[19] = Preemergence, Rate 62 g/ha, scale of 0 to 10 where 0 is no effect and 10 is complete control
[20] = Preemergence, Rate 125 g/ha, scale of 0 to 10 where 0 is no effect and 10 is complete control
[21] = Preemergence, Rate 250 g/ha, scale 0 to 10 (0 no effect, 10 complete control)
[22] = Preemergence, Rate 500 g/ha, scale of 0 to 10 where 0 is no effect and 10 is complete control
[23] = Rate 500 g/ha, Postemergence, scale 0 to 10, 0 is no effect, 10 is complete control
[24] = Postemergence, Rate 250 g/ha, scale of 0 to 10, 0 is no effect, 10 is complete control
[25] = Rate 62 g/ha, flood test species, Pre-emergence, visual evaluation after twelve to sixteen days
[26] = Rate 125 g/ha, under heading Pre-emergence, flood test species, visual evaluation after twelve to sixteen days
[27] = Rate 250 g/ha, Pre-emergence (flood test species), scale 0 to 10, 0 is no effect, 10 is complete control
[28] = Rate 500 g/ha, Pre-emergence section of Table B, 0 to 10 scale (0 no effect, 10 complete control)

CC(C)N(C(=O)n1oc(=O)n(CC2CCCCO2)c1=O)c1ccc(Cl)cc1 (centres unmarked) [Compound 660]
6: Redroot pigweed plant response rating [3, 23] | Soybean plant response rating [5, 23] | Morningglory plant response rating [9, 24] | Plant response rating, Blackgrass [16, 21] | Blackgrass plant response rating [16, 23]
1: B. signalgrass plant response rating [4, 20] | Plant response rating, Morningglory [9, 17]
7: Plant response rating, Redroot pigweed [3, 21] | Morningglory plant response rating [9, 23] | Plant response rating, Blackgrass [16, 22]
0: Plant response rating, Sugarbeets [1, 17] | Sugarbeets plant response rating [1, 18] | Sugarbeets plant response rating [1, 19] | Sugarbeets plant response rating [1, 20] | Plant response rating, Sugarbeets [1, 21] | Plant response rating, Sugarbeets [1, 22] | Sugarbeets plant response rating [1, 23] | Plant response rating, Wheat [2, 17] | Wheat plant response rating [2, 18] | Wheat plant response rating [2, 19] | Wheat plant response rating [2, 20] | Plant response rating, Wheat [2, 21] | Plant response rating, Wheat [2, 22] | Wheat plant response rating [2, 23] | Redroot pigweed plant response rating [3, 19] | Plant response rating, B. signalgrass [4, 17] | Plant response rating, B. signalgrass [4, 18] | B. signalgrass plant response rating [4, 24] | B. signalgrass plant response rating [4, 19] | Soybean plant response rating [5, 19] | Soybean plant response rating [5, 20] | Plant response rating, Soybean [5, 21] | Plant response rating, Soybean [5, 22] | Plant response rating, Cocklebur [6, 17] | Cocklebur plant response rating [6, 18] | Cocklebur plant response rating [6, 19] | Cocklebur plant response rating [6, 20] | Plant response rating, Cocklebur [6, 21] | Plant response rating, Cocklebur [6, 22] | Plant response rating, Wild oats [7, 17] | Wild oats plant response rating [7, 18] | Wild oats plant response rating [7, 19] | Wild oats plant response rating [7, 20] | Wild oats plant response rating [7, 23] | Plant response rating, Bedstraw ([8]; Rate 62 g/ha, scale 0 to 10, 0 is no effect, 10 is complete control) | Bedstraw plant response rating ([8]; Rate 125 g/ha, scale of 0 to 10 where 0 is no effect and 10 is complete control) | Bedstraw plant response rating ([8]; Rate 500 g/ha, scale 0 to 10, 0 is no effect, 10 is complete control) | Morningglory plant response rating [9, 19] | Morningglory plant response rating [9, 20] | Plant response rating, Morningglory [9, 21] | Plant response rating, Morningglory [9, 22] | Plant response rating, Ducksalad (0 to 10 scale, 0 is no effect, 10 is complete control) [10, 25] | Ducksalad plant response rating (0 to 10 scale, 0 is no effect, 10 is complete control) [10, 26] | Ducksalad plant response rating [10, 27] | Ducksalad plant response rating [10, 28] | Plant response rating, Nutsedge [11, 17] | Nutsedge plant response rating [11, 18] | Nutsedge plant response rating [11, 19] | Nutsedge plant response rating [11, 20] | Plant response rating, Nutsedge [11, 21] | Plant response rating, Nutsedge [11, 22] | Nutsedge plant response rating [11, 23] | Plant response rating, S. Flatsedge (0 to 10 scale, 0 is no effect, 10 is complete control) [12, 25] | S. Flatsedge plant response rating (0 to 10 scale, 0 is no effect, 10 is complete control) [12, 26] | S. Flatsedge plant response rating [12, 27] | S. Flatsedge plant response rating [12, 28] | Plant response rating, Barnyardgrass (0 to 10 scale, 0 is no effect, 10 is complete control) [13, 25] | Barnyardgrass plant response rating (0 to 10 scale, 0 is no effect, 10 is complete control) [13, 26] | Barnyardgrass plant response rating [13, 27] | Barnyardgrass plant response rating [13, 28] | Plant response rating, Rape [15, 17] | Rape plant response rating [15, 18] | Rape plant response rating [15, 19] | Rape plant response rating [15, 20] | Rape plant response rating [15, 23] | Plant response rating, Blackgrass [16, 17] | Blackgrass plant response rating [16, 18] | Blackgrass plant response rating [16, 19]
3: Soybean plant response rating [5, 18] | Plant response rating, Wild oats [7, 22] | Plant response rating, Giant foxtail [14, 17] | Plant response rating, Rape [15, 21] | Blackgrass plant response rating [16, 24]
2: Plant response rating, Redroot pigweed [3, 17] | Redroot pigweed plant response rating [3, 18] | Plant response rating, Soybean [5, 17] | Cocklebur plant response rating [6, 24] | Cocklebur plant response rating [6, 23] | Plant response rating, Wild oats [7, 21]
10: Plant response rating, Redroot pigweed [3, 22] | Giant foxtail plant response rating [14, 20] | Plant response rating, Giant foxtail [14, 21] | Plant response rating, Giant foxtail [14, 22]
8: Giant foxtail plant response rating [14, 19] | Giant foxtail plant response rating [14, 23]
4: Plant response rating, B. signalgrass [4, 21] | Plant response rating, B. signalgrass [4, 22] | Morningglory plant response rating [9, 18] | Giant foxtail plant response rating [14, 18] | Plant response rating, Rape [15, 22] | Blackgrass plant response rating [16, 20]
5: Redroot pigweed plant response rating [3, 20] | B. signalgrass plant response rating [4, 23] | Giant foxtail plant response rating [14, 24]
